pIC50: −log10 of the molar value. Like-named read-outs stand apart in the source and are kept apart here.
Tests used:
[1] = molecular target: SOS1 (Homo sapiens (Human), UniProt Q07889); test: Ras-SOS interaction assay (HTRF); type: biochemical
[2] = test system: MIA PaCa-2 cells (K-Ras G12C); test: Ras-SOS cellular growth inhibition assay (CellTiter-Glo, 3D); type: cell-based; conditions: Homo sapiens
Summary of the method: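 Growth read by CellTiter-Glo luminescence about 5 days after dosing with 3-fold dilutions (9 points), added one day post-seeding. Cells: MIA PaCa-2, 3D culture on ultra-low-attachment surface, medium DMEM/Ham's F12 plus 10% FCS and 2.5% horse serum; IC50 by four-parameter fit.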

[3] = test system: NCI-H1975 cells (EGFR T790M L858R); test: EGFR-SOS cellular inhibition assay (CellTiter-Glo, 3D); type: cell-based; conditions: Homo sapiens
[4] = K-RasG13D utilized, read-out: IC50 inhibition of SOS
[5] = K-RasG13D, read-out: IC50 value against SOS1
[6] = MIA PaCa-2, 120 h, MIA PaCa-2, 3D proliferation, about 5 days, read-out: Bio-Cell-Prolif-3D (MiaPaca2 IC50)
[7] = MIA PaCa-2, MIA PaCa-2, read-out: IC50 in inhibiting MIA PaCa-2 cell growth
[8] = 120 h, NCI-H1975, 3D proliferation, about 5 days, read-out: Bio-Cell-Prolif-3D (H1975 IC50)
[9] = NCI-H1975, EGFR T790M L858R, read-out: IC50 in inhibiting growth of NCI-H1975 cell line

Chain of SOS1 (Q07889 564-1049): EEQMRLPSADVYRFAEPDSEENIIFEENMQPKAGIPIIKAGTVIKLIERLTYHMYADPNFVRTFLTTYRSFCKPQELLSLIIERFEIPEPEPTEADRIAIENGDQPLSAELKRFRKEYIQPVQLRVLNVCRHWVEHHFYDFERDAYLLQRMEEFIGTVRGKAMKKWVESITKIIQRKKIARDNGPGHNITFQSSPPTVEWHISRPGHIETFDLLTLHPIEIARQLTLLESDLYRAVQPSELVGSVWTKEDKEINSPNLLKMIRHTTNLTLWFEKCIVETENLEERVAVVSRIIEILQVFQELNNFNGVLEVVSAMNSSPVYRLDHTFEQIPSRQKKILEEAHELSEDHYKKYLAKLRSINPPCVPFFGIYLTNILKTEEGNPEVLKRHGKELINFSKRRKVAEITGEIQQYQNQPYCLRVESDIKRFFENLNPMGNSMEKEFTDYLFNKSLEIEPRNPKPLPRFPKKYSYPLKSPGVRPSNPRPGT

Compound | pIC50 [1, 4] | pIC50 [1, 5] | pIC50 [2, 6] | pIC50 [2, 7] | pIC50 [3, 8] | pIC50 [3, 9]
COc1nc2ncnc(N[C@H](C)c3cccc(C(F)(F)CO)c3)c2cc1N1CCN(C(C)C)CC1 [Compound 205, (R)-2,2-difluoro-2-(3-(1-((6-(4-isopropylpiperazin-1-yl)-7-methoxypyrido[2,3-d]pyrimidin-4-yl)amino)ethyl)phenyl)ethan-1-ol] | > 7.00 | > 7.30 | ≥ 6.00 | > 6.30 | ≥ 6.00 | > 6.30
COc1nc2nc(C)nc(N[C@H](C)c3cccc(C(F)(F)CO)c3F)c2cc1C1(C#N)CC1 [Compound 206, (R)-1-(4-((1-(3-(1,1-difluoro-2-hydroxyethyl)-2-fluorophenyl)ethyl)amino)-7-methoxy-2-methylpyrido[2,3-d]pyrimidin-6-yl)cyclopropane-1-carbonitrile] | > 7.00 | > 7.30 | ≥ 6.00 | > 6.30 | ≥ 6.00 | > 6.30
COc1nc2nc(C)nc(N[C@H](C)c3cccc(C(F)(F)C4(O)CC4)c3F)c2cc1N1CCN(C(C)C)CC1 [Compound 209, (R)-1-(difluoro(2-fluoro-3-(1-((6-(4-isopropylpiperazin-1-yl)-7-methoxy-2-methylpyrido[2,3-d]pyrimidin-4-yl)amino)ethyl)phenyl)methyl)cyclopropan-1-ol] | > 7.00 | > 7.30 | ≥ 6.00 | > 6.30 | ≥ 6.00 | > 6.30
COc1nc2nc(C)nc(N[C@H](C)c3cccc(C(F)(F)C4CCN(C)CC4)c3F)c2cc1C1(C#N)CC1 [Compound 210, (R)-1-(4-((1-(3-(difluoro(1-methylpiperidin-4-yl)methyl)-2-fluorophenyl)ethyl)amino)-7-methoxy-2-methylpyrido[2,3-d]pyrimidin-6-yl)cyclopropane-1-carbonitrile] | > 7.00 | > 7.30 | ≥ 6.00 | > 6.30 | ≥ 6.00 | > 6.30
COc1nc2nc(C)nc(N[C@H](C)c3cccc(C(F)(F)C(C)(C)O)c3)c2cc1C1CCN(C(C)C)CC1 [Compound 212, (R)-1,1-difluoro-1-(3-(1-((6-(1-isopropylpiperidin-4-yl)-7-methoxy-2-methylpyrido[2,3-d]pyrimidin-4-yl)amino)ethyl)phenyl)-2-methylpropan-2-ol] | > 7.00 | > 7.30 | ≥ 6.00 | > 6.30 | ≥ 6.00 | > 6.30
COc1nc2nc(C)nc(N[C@H](C)c3cccc(C(F)(F)F)c3C)c2cc1C1(C#N)CC1 [Compound 213, (R)-1-(7-methoxy-2-methyl-4-((1-(2-methyl-3-(trifluoromethyl)phenyl)ethyl)amino)pyrido[2,3-d]pyrimidin-6-yl)cyclopropane-1-carbonitrile] | > 7.00 | – | ≥ 6.00 | – | ≥ 6.00 | –
COc1nc2nc(C)nc(N[C@H](C)c3cccc(C(C)(F)F)c3F)c2cc1N1CCS(=O)(=O)CC1 [Compound 215, (R)-4-(4-((1-(3-(1,1-difluoroethyl)-2-fluorophenyl)ethyl)amino)-7-methoxy-2-methylpyrido[2,3-d]pyrimidin-6-yl)thiomorpholine 1,1-dioxide] | > 7.00 | > 7.30 | ≥ 6.00 | > 6.30 | ≥ 6.00 | > 6.30
COc1nc2nc(CCN3CCC3)nc(N[C@H](C)c3cccc(C(F)(F)F)c3F)c2cc1C1(C#N)CC1 [Compound 217, (R)-1-(2-(2-(azetidin-1-yl)ethyl)-4-((1-(2-fluoro-3-(trifluoromethyl)phenyl)ethyl)amino)-7-methoxypyrido[2,3-d]pyrimidin-6-yl)cyclopropane-1-carbonitrile] | – | > 7.30 | ≥ 6.00 | – | ≥ 6.00 | > 6.30
CC(C)N1CCC(c2cc3c(N[C@H](C)c4cccc(C(F)(F)C5CCN(C(C)C)CC5)c4F)ncnc3nc2Cl)CC1 [Compound 218, (R)-7-chloro-N-(1-(3-(difluoro(1-isopropylpiperidin-4-yl)methyl)-2-fluorophenyl)ethyl)-6-(1-isopropylpiperidin-4-yl)pyrido[2,3-d]pyrimidin-4-amine] | > 7.00 | > 7.30 | ≥ 6.00 | > 6.30 | ≥ 6.00 | > 6.30
COc1nc2ncnc(N[C@H](C)c3cccc(C(F)(F)C4CCN(C(C)C)CC4)c3F)c2cc1C1CCN(C(C)C)CC1 [Compound 221, (R)-N-(1-(3-(difluoro(1-isopropylpiperidin-4-yl)methyl)-2-fluorophenyl)ethyl)-6-(1-isopropylpiperidin-4-yl)-7-methoxypyrido[2,3-d] pyrimidin-4-amine] | > 7.00 | > 7.30 | ≥ 6.00 | > 6.30 | ≥ 6.00 | > 6.30
Cc1nc(N[C@H](C)c2cccc(C(F)(F)C3CCN(C(C)C)CC3)c2F)c2cc(C3CCN(C(C)C)CC3)c(Cl)nc2n1 [Compound 222, (R)-7-chloro-N-(1-(3-(difluoro(1-isopropylpiperidin-4-yl)methyl)-2-fluorophenyl)ethyl)-6-(1-isopropylpiperidin-4-yl)-2-methylpyrido[2,3-d]pyrimidin-4-amine] | > 7.00 | > 7.30 | ≥ 6.00 | > 6.30 | ≥ 6.00 | > 6.30
Cc1nc(N[C@H](C)c2cccc(C(F)(F)C3CCN(C(C)C)CC3)c2F)c2cc(N3CCN(C(C)C)CC3)c(Cl)nc2n1 [Compound 223, (R)-7-chloro-N-(1-(3-(difluoro(1-isopropylpiperidin-4-yl)methyl)-2-fluorophenyl)ethyl)-6-(4-isopropylpiperazin-1-yl)-2-methylpyrido[2,3-d]pyrimidin-4-amine] | > 7.00 | > 7.30 | ≥ 6.00 | > 6.30 | ≥ 6.00 | > 6.30
CC(C)N1CCC(C(F)(F)c2cccc([C@@H](C)Nc3ncnc4nc(Cl)c(N5CCN(C(C)C)CC5)cc34)c2F)CC1 [Compound 224, (R)-7-chloro-N-(1-(3-(difluoro(1-isopropylpiperidin-4-yl)methyl)-2-fluorophenyl)ethyl)-6-(4-isopropylpiperazin-1-yl)pyrido[2,3-d]pyrimidin-4-amine] | > 7.00 | > 7.30 | ≥ 6.00 | > 6.30 | ≥ 6.00 | > 6.30
Cc1nc(N[C@H](C)c2cccc(C(F)F)c2F)c2cc(C3(C#N)CC3)c(O[C@@H]3CCN(C)C3)nc2n1 [Compound 226, 1-(4-(((R)-1-(3-(difluoromethyl)-2-fluorophenyl)ethyl)amino)-2-methyl-7-(((R)-1-methylpyrrolidin-3-yl)oxy)pyrido[2,3-d]pyrimidin-6-yl)cyclopropane-1-carbonitrile] | > 7.00 | – | 5.00 to 6.00 | – | ≥ 6.00 | > 6.30
C[C@@H](Nc1ncnc2nc(OC3COC3)c(C3CCS(=O)(=O)CC3)cc12)c1cccc(C(F)F)c1F [Compound 227, (R)-4-(4-((1-(3-(difluoromethyl)-2-fluorophenyl)ethyl)amino)-7-(oxetan-3-yloxy)pyrido[2,3-d]pyrimidin-6-yl)tetrahydro-2H-thiopyran 1,1-dioxide] | > 7.00 | > 7.30 | ≥ 6.00 | – | ≥ 6.00 | –
